# Measurements published in patent US9828379B2 (priority 2013, dated 2017).
# Key:
# ABHD6 [1] = biological target: T1, ABHD6 (Mus musculus, UniProt Q8R2Y0); experiment: biochemical; settings: in vitro competitive ABPP
# T1 sequence (Q8R2Y0 1-336): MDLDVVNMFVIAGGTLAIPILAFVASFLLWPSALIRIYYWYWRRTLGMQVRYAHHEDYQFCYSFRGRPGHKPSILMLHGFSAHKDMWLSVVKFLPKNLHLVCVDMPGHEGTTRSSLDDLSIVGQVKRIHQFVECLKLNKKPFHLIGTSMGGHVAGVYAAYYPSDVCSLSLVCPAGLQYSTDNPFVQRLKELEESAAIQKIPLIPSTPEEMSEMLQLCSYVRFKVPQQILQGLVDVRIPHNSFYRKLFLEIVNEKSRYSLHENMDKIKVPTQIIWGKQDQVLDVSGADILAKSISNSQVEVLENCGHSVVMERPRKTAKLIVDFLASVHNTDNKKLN
# FAAH [2] = biological target: T2, FAAH (Mus musculus, UniProt O08914); experiment: biochemical; settings: in vitro competitive ABPP
# T2 sequence (O08914 1-579): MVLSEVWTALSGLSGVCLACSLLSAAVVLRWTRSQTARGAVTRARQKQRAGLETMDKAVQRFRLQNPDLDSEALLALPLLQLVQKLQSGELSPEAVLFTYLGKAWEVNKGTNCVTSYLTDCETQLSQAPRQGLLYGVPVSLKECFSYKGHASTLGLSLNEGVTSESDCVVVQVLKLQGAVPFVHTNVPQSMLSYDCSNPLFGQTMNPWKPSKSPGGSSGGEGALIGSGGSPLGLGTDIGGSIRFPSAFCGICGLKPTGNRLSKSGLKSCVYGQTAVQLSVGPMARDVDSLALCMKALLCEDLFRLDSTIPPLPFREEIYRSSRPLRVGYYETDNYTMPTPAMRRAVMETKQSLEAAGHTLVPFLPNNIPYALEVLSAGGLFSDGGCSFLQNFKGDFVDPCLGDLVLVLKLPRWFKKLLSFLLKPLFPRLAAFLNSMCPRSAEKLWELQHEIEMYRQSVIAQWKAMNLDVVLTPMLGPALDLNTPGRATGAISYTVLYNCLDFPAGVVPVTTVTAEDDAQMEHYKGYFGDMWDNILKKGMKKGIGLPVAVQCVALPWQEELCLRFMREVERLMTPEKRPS
# MAGL [3] = biological target: T3, MAGL (Mus musculus, UniProt O35678); experiment: biochemical; settings: mouse; in vitro competitive ABPP; read-out: Mouse (IC50 value, nM) MAGL
# T3 sequence (O35678 1-303): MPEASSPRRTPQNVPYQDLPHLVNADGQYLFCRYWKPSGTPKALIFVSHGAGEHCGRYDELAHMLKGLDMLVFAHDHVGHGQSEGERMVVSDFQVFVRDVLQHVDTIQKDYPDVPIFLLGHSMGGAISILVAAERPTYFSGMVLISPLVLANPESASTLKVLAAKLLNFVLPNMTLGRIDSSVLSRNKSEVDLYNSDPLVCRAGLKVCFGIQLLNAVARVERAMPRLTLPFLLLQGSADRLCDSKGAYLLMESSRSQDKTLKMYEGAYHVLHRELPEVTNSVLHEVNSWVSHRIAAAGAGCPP
# ABHD6 [4] = biological target: T1, ABHD6; experiment: In vitro competitive activity-based protein profiling (Table 2, % inhibition at 1 μM); format: biochemical; settings: read-out: % Inhibition at 1 μM ABHD6
# FAAH [5] = biological target: T2, FAAH; experiment: as above; format: biochemical; settings: read-out: % Inhibition at 1 μM FAAH
# MAGL [6] = biological target: T3, MAGL; experiment: as above; format: biochemical; settings: read-out: % Inhibition at 1 μM MAGL
# Description: After 30 min, FP—Rh (1.0 μL, 50 μM in DMSO) was added and the mixture was incubated for another 30 min at 37° C. Reactions were quenched with SDS loading buffer (50 μL-4×) and run on SDS-PAGE.
# Cell lysates were diluted with mock proteomes for use in competitive ABPP experiments.
SMILES,IC50 (ABHD6 [1]),IC50 (FAAH [2]),IC50 (MAGL [3]),inhibition at 1 µM (ABHD6 [4]),inhibition at 1 µM (FAAH [5]),inhibition at 1 µM (MAGL [6])
"O=C(ON1C(=O)CCC1=O)N1CC2CN(Cc3cccc(Cl)c3N3CCC(F)CC3)CC2C1 (stereo not drawn) [Example 160, 2,5-dioxopyrrolidin-1-yl 5-[[3-chloro-2-(4-fluoropiperidin-1-yl)phenyl]methyl]-octahydropyrrolo[3,4-c]pyrrole-2-carboxylate]",1000 to 10000 nM,1000 to 10000 nM,100 to 1000 nM,25 to 75%,25 to 75%,> 75%
"CCn1ncc(CN2CC3CN(C(=O)OC(C(F)(F)F)C(F)(F)F)CC3C2)c1C(=O)NCC1CC1 (stereo not drawn) [Example 179, 1,1,1,3,3,3-hexafluoropropan-2-yl 5-((5-((cyclopropylmethyl)carbamoyl)-1-ethyl-1H-pyrazol-4-yl)methyl)hexahydropyrrolo[3,4-c]pyrrole-2(1H)-carboxylate]",100 to 1000 nM,> 10000 nM,< 100 nM,25 to 75%,< 25%,> 75%
"Cc1cccc(CN2CC3CN(C(=O)OC(C(F)(F)F)C(F)(F)F)CC3C2)c1N1CCN(C)CC1 (stereo not drawn) [Example 147, 1,1,1,3,3,3-hexafluoropropan-2-yl 5-[[3-methyl-2-(4-methylpiperazin-1-yl)phenyl]methyl]-octahydropyrrolo[3,4-c]pyrrole-2-carboxylate]",> 10000 nM,> 10000 nM,100 to 1000 nM,< 25%,< 25%,> 75%
"O=C(OC(C(F)(F)F)C(F)(F)F)N1CC2CN(Cc3cccc(N4CCOCC4)c3Cl)CC2C1 (stereo not drawn) [Example 49, 1,1,1,3,3,3-Hexafluoropropan-2-yl 5-[[2-chloro-3-(morpholin-4-yl)phenyl]methyl]-octahydropyrrolo[3,4-c]pyrrole-2-carboxylate]",1000 to 10000 nM,1000 to 10000 nM,< 100 nM,< 25%,25 to 75%,> 75%
"Cc1cccc(CN2CC3CN(C(=O)OC(C(F)(F)F)C(F)(F)F)CC3C2)c1N1CCOCC1 (stereo not drawn) [Example 41, 1,1,1,3,3,3-Hexafluoropropan-2-yl 5-[[3-methyl-2-(morpholin-4-yl)phenyl]methyl]-octahydropyrrolo[3,4-c]pyrrole-2-carboxylate]",1000 to 10000 nM,1000 to 10000 nM,100 to 1000 nM,< 25%,< 25%,> 75%
"CC(=O)N1CCN(c2cc(Cl)ccc2CN2CC3CN(C(=O)OC(C(F)(F)F)C(F)(F)F)CC3C2)CC1 (stereo not drawn) [Example 21, 1,1,1,3,3,3-Hexafluoropropan-2-yl 5-[[2-(4-acetylpiperazin-1-yl)-4-chlorophenyl]methyl]-octahydropyrrolo[3,4-c]pyrrole-2-carboxylate]",100 to 1000 nM,1000 to 10000 nM,< 100 nM,25 to 75%,25 to 75%,> 75%
"Cc1c(CN2CC3CN(C(=O)ON4C(=O)CCC4=O)CC3C2)cccc1N1CCCCC1 (stereo not drawn) [Example 104, 2,5-Dioxopyrrolidin-1-yl 5-[[2-methyl-3-(piperidin-1-yl)phenyl]methyl]-octahydropyrrolo[3,4-c]pyrrole-2-carboxylate]",1000 to 10000 nM,100 to 1000 nM,< 100 nM,< 25%,> 75%,> 75%
